{"source": "patent US9408853B2", "about": "“Iridium/rhodium anti-cancer compounds” (University of Warwick, priority 2010, dated 2016)", "data": [{"system": "human ovarian A2780 cancer cells", "assay": "Cancer cell cytotoxicity, SRB assay", "format": "cell-based", "conditions": "not given", "description": "(§1) Cancer Cell Cytotoxicity. After plating, human ovarian A2780 cancer cells were treated with Ir^III complexes on day 3 at concentrations ranging from 0.5 μM to 100 μM. Solutions of the Ir^III complexes were made up in 0.125% DMSO to assist dissolution. Stock solutions of the IrIII complexes were firstly prepared in DMSO to assist dissolution, and then diluted into 0.9% saline and medium. After plating 5000 A2780 cells per well on day 1, IrIII complexes were added to the cancer cells on day 3 at concentrations ranging from 0.05 μM to 100 μM. Cells were exposed to the complexes for 24 h, washed, supplied with fresh medium, allowed to grow for three doubling times (72 h), and then the protein content measured (proportional to cell survival) using the sulforhodamine B (SRB) assay.^15 […]. The standard errors are based on two independent experiments of three replicates each.", "values": [{"compound": "Cc1c(C)c(C)[c-](C)c1C.[Cl-].[Ir+3].[c-]1ccccc1C=Nc1ccccc1", "note": "[ZL51, [(η^5-C5Me5)Ir{C6H4-2-C(H)═NPh-κC,N}Cl]]", "cytotoxic activity towards A2780 (in words)": "moderate or high activity"}, {"compound": "Cc1c(C)c(C)[c-](C)c1C.[Cl-].[Ir+3].[O-]c1cccnc1-c1ncccc1O", "note": "[ZL44, [(η^5-C5Me5)Ir(bipy(OH)O)Cl]]", "cytotoxic activity towards A2780 (in words)": "moderate or high activity"}]}, {"system": "human ovarian A2780 cancer cells", "assay": "Cancer cell cytotoxicity, SRB assay", "format": "cell-based", "conditions": "24 h exposure, 72 h recovery, SRB; read-out: A2780 IC50", "description": "as §1", "units": {"IC50": "µM"}, "values": [{"compound": "Cc1c(C)c(-c2ccccc2)[c-](C)c1C.NCCN.[Cl-].[Ir+3].c1ccc([B-](c2ccccc2)(c2ccccc2)c2ccccc2)cc1", "note": "[ZL31, [(η^5-C5Me4C6H5)IrCl(H2NCH2CH2NH2—N,N)]BPh4]", "IC50": 17}, {"compound": "Cc1c(C)c(C)[c-](C)c1C.Cc1ccnc(-c2cc(C)ccn2)c1.F[P-](F)(F)(F)(F)F.[Cl-].[Ir+3]", "note": "[ZL55, [(η^5-C5Me5)Ir(bipy(Me)2)Cl]PF6]", "IC50": "> 100"}, {"compound": "Cc1c(C)c(C)[c-](-c2ccc(-c3ccccc3)cc2)c1C.Cc1ccnc(-c2cc(C)ccn2)c1.F[P-](F)(F)(F)(F)F.[Cl-].[Ir+3]", "note": "[ZL59, [(η^5-C5Me4C6H4C6H5)Ir(bipy(Me)2)Cl]PF6]", "IC50": 0.51}, {"compound": "Cc1c(C)c(-c2ccc(-c3ccccc3)cc2)[c-](C)c1C.F[P-](F)(F)(F)(F)F.[Ir+3].[c-]1ccccc1-c1ccccn1.c1ccncc1", "note": "(centres unmarked) [ZL105, [(η^5-C5Me4C6H4C6H5)Ir(2-phpy)(py)]PF6]", "IC50": "0.12 ± 0.02"}, {"compound": "Cc1c(C)c(C)[c-](-c2ccccc2)c1C.Cc1ccnc(-c2cc(C)ccn2)c1.F[P-](F)(F)(F)(F)F.[Cl-].[Ir+3]", "note": "[ZL57, [(η^5-C5Me4C6H5)Ir(bipy(Me)2)Cl]PF6]", "IC50": 9.2}, {"compound": "Cc1c(C)c(C)[c-](C)c1C.[Cl-].[Ir+3].[c-]1ccccc1C=Nc1ccccc1", "note": "[ZL51, [(η^5-C5Me5)Ir{C6H4-2-C(H)═NPh-κC,N}Cl]]", "IC50": 5}, {"compound": "Cc1c(C)c(C)[c-](C)c1C.[Cl-].[Ir+3].[O-]c1cccnc1-c1ncccc1O", "note": "[ZL44, [(η^5-C5Me5)Ir(bipy(OH)O)Cl]]", "IC50": 17.2}, {"compound": "CC(=O)C=C(C)[O-].Cc1c(C)c(C)[c-](C)c1C.[Cl-].[Ir+3]", "note": "[ZL02, [(η^5-C5Me5)Ir(acac)Cl]]", "IC50": "> 100"}, {"compound": "Cc1c(C)c(C)[c-](-c2ccccc2)c1C.F[P-](F)(F)(F)(F)F.Oc1cccnc1-c1ncccc1O.[Cl-].[Ir+3]", "note": "[ZL45, [(η^5-C5Me4C6H5)Ir(bipy(OH)2)Cl]PF6]", "IC50": 7.2}, {"compound": "Cc1c(C)c(C)[c-](-c2ccc(-c3ccccc3)cc2)c1C.[Cl-].[Ir+3].[O-]c1cccnc1-c1ncccc1O", "note": "[ZL46, {(η^5-C5Me4C6H4C6H5)Ir[bipy(OH)(O)]Cl}]", "IC50": 2.8}, {"compound": "Cc1c(C)c(-c2ccc(-c3ccccc3)cc2)[c-](C)c1C.Fc1c[c-]c(-c2ccccn2)c(F)c1.[Cl-].[Ir+3]", "note": "(centres unmarked) [ZL103, [(η^5-C5Me4C6H4C6H5)Ir(2-dfphpy)Cl]]", "IC50": "0.67 ± 0.11"}]}, {"system": "human ovarian A2780 cancer cells", "assay": "Cancer cell cytotoxicity, SRB assay", "format": "cell-based", "conditions": "screening test; read-out: A2780 IC50, data from screening test", "description": "as §1", "units": {"IC50": "µM"}, "values": [{"compound": "CN(C)c1ccc(N=Nc2ccccn2)cc1.Cc1c(C)c(C)[c-](C)c1C.F[P-](F)(F)(F)(F)F.[Cl-].[Ir+3]", "note": "[ZL64, [(η^5-C5Me5)Ir(azpy-NMe2)Cl]PF6]", "IC50": "< 30"}, {"compound": "Cc1c(C)c(C)[c-](-c2ccc(-c3ccccc3)cc2)c1C.[Cl-].[Cl][Ir+2].c1ccc2nc3c4cccnc4c4ncccc4c3nc2c1", "note": "[ZL95, [(η^5-C5Me4C6H4C6H5Pr(dppz)Cl]Cl]", "IC50": "< 5"}, {"compound": "Cc1c(C)c(C)[c-](-c2ccccc2)c1C.[Cl-].[Cl][Ir+2].c1ccc2nc3c4cccnc4c4ncccc4c3nc2c1", "note": "[ZL93, [(η^5-C5Me4C6H5)Ir(dppz)Cl]Cl]", "IC50": "< 5"}, {"compound": "CCC[c-]1c(C)c(C)c(C)c1C.[Cl-].[Ir+3].[c-]1ccccc1-c1ccccn1", "note": "[ZL100, [(η^5-C5Me4C3H7)Ir(2-phpy)Cl]]", "IC50": "< 10"}, {"compound": "CN(C)c1ccc(N=Nc2ccccn2)cc1.Cc1c(C)c(-c2ccccc2)[c-](C)c1C.F[P-](F)(F)(F)(F)F.[Cl-].[Ir+3]", "note": "[ZL109, [(η^5-C5Me4C6H5)Ir(azpy-NMe2)Cl]PF6]", "IC50": "< 10"}, {"compound": "Cc1c(C)c(C)[c-](-c2ccc(-c3ccccc3)cc2)c1C.[Cl-].[Cl][Ir+2].c1cnc2c(c1)c1nccnc1c1cccnc12", "note": "[ZL94, [(η^5-C6Me4C6H4C6H5)Ir(dpq)Cl]Cl]", "IC50": "< 5"}, {"compound": "Cc1c(C)c(C)[c-](-c2ccccc2)c1C.F[P-](F)(F)(F)(F)F.[Cl][Ir+2]1[N]2C=CC=c3c2c2c(c4nccnc34)=CC=C[N]21", "note": "[ZL89, [(η^5-C5Me4C6H5)Ir(dpq)Cl]PF6]", "IC50": "< 5"}]}, {"system": "not listed separately", "assay": "Determination of pKa* of coordinated D2O by 1H NMR pH* titration", "format": "physicochemical", "conditions": "calculated from pKa* according to Krezel and Bal (pKa=0.929pKa*+0.42)", "description": "(§2) pH* Measurement. pH* values (pH meter reading without correction for effects of D on glass electrode) of NMR samples in D2O were measured at ca. 298 K directly in the NMR tube, before and after recording NMR spectra, using a Corning 240 pH meter equipped with a micro combination electrode calibrated with Aldrich buffer solutions of pH 4, 7 and 10. For determination of the pKa* value of aquated complexes, complexes were dissolved in D2O and 0.98 mol equiv of AgNO3 was added. The solution was stirred for 24 h at 298 K, and AgCl was removed by filtration.\n(§3) Determination of pKa* Values. […] The chemical shifts of the chelating ligands or/and methyl group of Cp* protons were plotted against pH*. The pH* titration curves were fitted to the Henderson-Hasselbalch equation, with the assumption that the observed chemical shifts are weighted averages according to the populations of the protonated and deprotonated species.\n(§4) The changes in the ^1H NMR chemical shifts for the protons of the coordinated chelating ligands in compounds ZL25A, ZL54A, ZL38A, chelating ligands and methyl group in Cp* or Cp^xph in compounds ZL04A, ZL07A, ZL37A, ZL03A, and methyl group in Cp* in compound ZL01A were followed with change in pH* over a range of 2-11. The mean pKa* value was taken for each complex.\n(§5) When the pH* values of the solutions were increased from about 2 to 11, the NMR peaks assigned to ZL01A, ZL03A, ZL04A, ZL07A, ZL25A, ZL37A, ZL38A and ZL54A gradually shifted to high field in the spectrum.\n(§6) When the pH* values of the solutions were increased from about 2 to 10, the NMR peaks assigned to aqua complexes ZL47A, ZL49A, ZL69A and ZL74A gradually shifted to high field in the spectrum. The resulting pH titration curves were fitted to the modified Henderson-Hasselbalch equation, from which the pKa* values of the coordinated water were determined.", "values": [{"compound": "[(η^5-C5Me5)Ir(tpy)(D2O)]^+ [ZL69A]", "pKa (deprotonation of coordinated D2O)": 8.87}, {"compound": "[(η^5-C5Me5)Ir(2-phpy)(D2O)]^+ [ZL47A]", "pKa (deprotonation of coordinated D2O)": 8.75}, {"compound": "[(η^5-C5Me4C6H5)Ir(bipy)OD2]^2+ [ZL37A]", "pKa (deprotonation of coordinated D2O)": 6.28}, {"compound": "[(η^5-C5Me4C6H5)Ir(pico)OD2]^+ [ZL38A]", "pKa (deprotonation of coordinated D2O)": 7.62}, {"compound": "[(η^5-C5Me4C6H4C6H5)Ir(2-phpy)(D2O)]^+ [ZL49A]", "pKa (deprotonation of coordinated D2O)": 8.31}, {"compound": "[(η^5-C5Me5)Ir(2-dfphpy)(D2O)]^+ [ZL74A]", "pKa (deprotonation of coordinated D2O)": 8.32}, {"compound": "[(η^5-C5Me4C6H4C6H5)Ir(bipy)OD2]^2+ [ZL25A]", "pKa (deprotonation of coordinated D2O)": 6.63}, {"compound": "Cc1c(C)c(C)[c-](C)c1C.[2H]O[2H].[Ir+3].c1ccc(-c2ccccn2)nc1", "note": "[ZL04A, [(η^5-C5Me5)Ir(bipy)OD2]^2+]", "pKa (deprotonation of coordinated D2O)": 6.86}, {"compound": "Cc1c(C)c(C)[c-](C)c1C.[2H]O[2H].[Ir+3].c1cnc2c(c1)ccc1cccnc12", "note": "[ZL07A, [(η^5-C5Me5)Ir(phen)OD2]^2+]", "pKa (deprotonation of coordinated D2O)": 7.74}, {"compound": "[(η^5-C5Me5)Ir(pico)OD2]^+ [ZL03A]", "pKa (deprotonation of coordinated D2O)": 7.99}, {"compound": "[(η^5-C5Me4C6H4C6H5)Ir(phen)OD2]^2+ [ZL54A]", "pKa (deprotonation of coordinated D2O)": 7.38}, {"compound": "Cc1c(C)c(C)[c-](C)c1C.NCCN.[2H]O[2H].[Ir+3]", "note": "[ZL01A, [(η^5-C5Me5)IrCl(en)OD2]^2+]", "pKa (deprotonation of coordinated D2O)": 7.54}]}, {"system": "not listed separately", "assay": "Determination of pKa* of coordinated D2O by 1H NMR pH* titration", "format": "physicochemical", "conditions": "in D2O", "description": "as §2, §3, §4, §5, §6", "values": [{"compound": "[(η^5-C5Me5)Ir(tpy)(D2O)]^+ [ZL69A]", "pKa* (deprotonation of coordinated D2O)": 9.10}, {"compound": "[(η^5-C5Me5)Ir(2-phpy)(D2O)]^+ [ZL47A]", "pKa* (deprotonation of coordinated D2O)": 8.97}, {"compound": "[(η^5-C5Me4C6H5)Ir(bipy)OD2]^2+ [ZL37A]", "pKa* (deprotonation of coordinated D2O)": 6.31}, {"compound": "[(η^5-C5Me4C6H5)Ir(pico)OD2]^+ [ZL38A]", "pKa* (deprotonation of coordinated D2O)": 7.75}, {"compound": "[(η^5-C5Me4C6H4C6H5)Ir(2-phpy)(D2O)]^+ [ZL49A]", "pKa* (deprotonation of coordinated D2O)": 8.50}, {"compound": "[(η^5-C5Me5)Ir(2-dfphpy)(D2O)]^+ [ZL74A]", "pKa* (deprotonation of coordinated D2O)": 8.51}, {"compound": "[(η^5-C5Me4C6H4C6H5)Ir(bipy)OD2]^2+ [ZL25A]", "pKa* (deprotonation of coordinated D2O)": 6.68}, {"compound": "Cc1c(C)c(C)[c-](C)c1C.[2H]O[2H].[Ir+3].c1ccc(-c2ccccn2)nc1", "note": "[ZL04A, [(η^5-C5Me5)Ir(bipy)OD2]^2+]", "pKa* (deprotonation of coordinated D2O)": 6.94}, {"compound": "Cc1c(C)c(C)[c-](C)c1C.[2H]O[2H].[Ir+3].c1cnc2c(c1)ccc1cccnc12", "note": "[ZL07A, [(η^5-C5Me5)Ir(phen)OD2]^2+]", "pKa* (deprotonation of coordinated D2O)": 7.88}, {"compound": "[(η^5-C5Me5)Ir(pico)OD2]^+ [ZL03A]", "pKa* (deprotonation of coordinated D2O)": 8.15}, {"compound": "[(η^5-C5Me4C6H4C6H5)Ir(phen)OD2]^2+ [ZL54A]", "pKa* (deprotonation of coordinated D2O)": 7.50}, {"compound": "Cc1c(C)c(C)[c-](C)c1C.NCCN.[2H]O[2H].[Ir+3]", "note": "[ZL01A, [(η^5-C5Me5)IrCl(en)OD2]^2+]", "pKa* (deprotonation of coordinated D2O)": 7.66}]}]}
